A short description of data set [1]: In vitro release kinetics by dialysis in PBS. Type of data set: physicochemical. Conditions: within 1 hour, free drug. As for the experimental part:
Two milliliters of GCS-SM/DOX NPs were loaded in dialysis bags (MWCO: 6-8 KDa, Spectrum laboratories) and were put into 25 mL of PBS (pH 7.4, 100 mM) at 37° C. under continuous stirring. At predesigned time points, 1 mL of media was withdrawn. Concentrations of SM or DOX were determined by UV-Vis spectrometer (Beckman, DU650) at 312 nm and 480 nm, respectively. All experiments were carried out in triplicate independently.

Data set [2] concerns MDA-MB-231 cells. Kind of data set: Cellular uptake and subcellular distribution of DOX (FACS, confocal, cell fractionation). It counts as cell-based, human. As for the experimental part: Cellular uptake of GCS-SM/DOX NPs was quantified by flow cytometry and confocal microscopy. The intracellular distribution of the DOX was measured by cell fraction assay. MDA-MB-231 cells were seeded in 12 well plates at 200,000 cells/well and treated with DOX or GCS-SM/DOX NPs at the DOX concentration of 1 μM for 3 hours. Afterwards, cells were washed 3 times with cold PBS to remove un-bound DOX or nanoparticles. Cells were collected, fixed in 4% formaldehyde, and analyzed by FACS (BD Accuri C6, BD Biosciences).
To further investigate the uptake behaviors of nanoparticles, confocal microscopy was employed. MDA-MB-231 cells were seeded in petri dishes and treated with DOX or GCS-SM/DOX NPs at a DOX concentration of 1 μg/mL. After 3 hours of co-incubation, cells were washed 3 times and images were taken with a Zeiss 710 LM confocal microscope.
GCS-SM/DOX NPs were incubated with MDA-MB-231 cells at 37° C. for 1 hour. Cells were washed 3 times, then collected by scraping. Cells were subjected to subcellular fractionation after the treatment. […] DOX uptake amount was quantified by the fluorescent intensity at the excitation at 485 nm with the emission at 585 nm. The protein concentration of cytosol and nuclear fraction were quantified by BCA assay kit.

The subject of data set [3] is MDA-MB-231 cells. Kind of data set: MTT cell viability assay with combination index analysis. Type of data set: cell-based, human. As for the experimental part: The anticancer activities of the combination of DOX and SM were investigated with an MTT colorimetric assay. Cells with or without a/b FGF treatment were seeded in 96-well plates at an initial density of 20,000 cells/well. After 24 hours of incubation, the medium was replaced with 150 μL of fresh medium containing different treatments, including DOX, SM, and the combination of DOX and SM, and continued to be incubated for an additional 24 hours or 48 hours. Afterwards, the media were replaced with 100 μL fresh media containing 1 mg/mL MTT reagent and incubated for another 4 hours. The formed MTT crystals were dissolved with a stop solution and the final optical density of the medium was measured using a microplate reader (ELX808, Bio-Tech Instrument, Inc.) at λ=595 nm. A combination index (CI) analysis based on the Chou-Talalay method was performed using CalcuSyn software.
Background: Tetrazolium dyes change colour on reduction, which living cells bring about.

For data set [4], the system named is MDA-MB-231 cells. Kind of data set: Wound healing (cell migration) assay. It counts as cell-based, human. Conditions: MDA-MB-231 pretreated with a/b FGF, live cell imaging. As for the experimental part:
The migration of breast cancer cells was evaluated with a wound healing assay. Living videos of cell migration in a 24-well plate were acquired with a Zeiss 710 LM confocal microscope. MDA-MB-231 cells were pretreated with a/b FGF for 24 hours. After that, a wound was created by scraping the cell monolayer in a straight line with a p200 tip, and cell debris was removed by washing with PBS three times. Cells were incubated with different treatments and allowed to grow in a 37° C. chamber with 5% CO2 for 24 hours. Videos were taken using a confocal microscope with a transmittance channel continuously at 10× magnification.

In data set [5] the test system is Human umbilical vein endothelial cells (HUVECs). As to the kind of experiment: Endothelial tube formation assay. It counts as cell-based. Conditions: HUVEC on Geltrex. As for the experimental part:
Human umbilical vein endothelial cells (HUVECs) were cultured and maintained in a complete EGM Medium. Cells were stained with Celltracker Deep red (1 μM) for 30 minutes prior to the experiment. One hundred and fifty microliters (μL) of Geltrex® (Thermofisher) was added to each well in a 24-well plate and allowed to be polymerized for 30 minutes at 37° C. HUVEC cells were seeded in each well at a density of 2×10^5 cells/mL. SM, GCS, and GCS-SM NPs at concentrations of 10 μM and 20 μM were mixed with cells prior to seeding in the coated gel layer. The tube formation was photographed at 6 hours and 20 hours with an inverted phase contrast microscope (Canon Powershot A640) in a randomly selected field under 10× magnification, and the number of formed tubes and length of the tubes were quantified manually by Image J. Fluorescent images of cells were photographed by Zeiss 710 LM confocal microscope under 10× magnification.

For data set [6], the system named is MDA-MB-231 cells. As to the kind of experiment: Transwell Matrigel cell invasion assay. Type of data set: cell-based, human. Conditions: 40 μM SM, 16 hours; control 952. As for the experimental part: BD cell culture inserts with a pore size of 8 μm (BD, Biosciences) were pre-coated with 100 μL of Matrigel at the concentration of 0.2 mg/mL (dilution from BD Matrigel stock 10 mg/mL with coating buffer). MDA-MB-231 cells were seeded at a density of 70,000 cells per 50 μL in the inserts in an FBS-free DMEM medium. SM or GCS-SM NPs was then added to the inserts together with 50 μL serum free medium. Each lower chamber was supplied with 1.2 mL 10% FBS containing medium supplemented with different treatments that were the same as each respective top chamber. After 16 hours of incubation, the inserts were washed with PBS and fixed with methanol. Subsequently, cells were stained with hematoxylin and washed twice with PBS. The membrane in each of the inserts was then cut and mounted onto a coverslip, and the cell number was counted with a light microscope under 10× magnification. Each well was imaged at 5 different fields, and the invasion rate was expressed by the average number of cells per microscopic field.

Data set [7] deals with CD31 stained microvessels in tumor tissues. Kind of data set: CD31 immunohistochemistry of tumor microvessels. It counts as in vivo, Female athymic mice (nu/nu). The following applies: CD31 IHC. As for the experimental part:
Tissue sections of 5 μm thickness were obtained from the formalin fixed, paraffin embedded tissue blocks with a microtome. The standard hematoxylin and eosin staining was performed in the lung, liver and kidney tissue sections of each group. To study the tumor neovasculature, CD31 IHC was applied to identify the intra-tumor blood vessel distribution. The section was deparaffinized and treated for 30 minutes with 0.5 M Tris buffer (pH 10) at 95° C. for antigen retrieval. Sections were blocked in 5% goat serum for 20 min at room temperature. The sections were blocked with peroxidase block for 5 minutes and incubated with a primary antibody (rabbit polyclonal anti-CD31 antibody) diluted with 1% BSA (1:50) for 1 hour at room temperature, followed by the staining with peroxidase labelled polymer for 30 minutes at room temperature. The sections were then developed with the substrate-DAB for 5 minutes at room temperature and counterstained with Gill's Hematoxylin for 10 seconds. The slides were mounted with ProLong® Gold Antifade Mountant and imaged at 40× magnification with a microscope.

Data set [8] is described as follows: Histology (H&E) of lung, liver, kidney and TEM of heart of treated mice. Type of data set: in vivo, Female athymic mice (nu/nu). As for the experimental part:
(§1) All animal experiments were conducted in accordance with NIH regulations and approved by the Institutional Animal Care and Use Committee of the University of South Carolina. Female athymic mice at the age of 6 to 8 weeks (nu/nu) were obtained from Jackson laboratory. MDA-MB-231/Luc-GFP cells were implanted by tail vein injection (2×10^6 cells in 100 μL PBS). Mice were then randomly divided into 5 groups and received the following treatments: 1) saline only; 2) SM at the dose of 3.5 mg/kg once per week; 3) free SM and DOX at the dose of 3.5 mg/kg of SM and 0.5 mg/kg of DOX once per week; 4) GCS-SM NPs at the dose of 3.5 mg/kg of SM once per week; 5) GCS-SM/DOX NPs at the dose of 3.5 mg/kg of SM and 0.5 mg/kg of DOX (molar ratio of SM to DOX is 17:1) once per week. The whole treating procedure lasted for two months and the progression of tumors was monitored every week by luminescence with an IVIS Lumia system after i.v. injection of luciferin (30 mg/mL, 50 μL). Bodyweights of the mice were recorded at the same time. At the endpoint of each mouse, organs were isolated and collected. The weights of the lungs were recorded. Fluorescent images of the lungs were also captured. The collected organs were fixed in 10% neutralized formalin solution and embedded in paraffin.
Tissue sections of 5 μm thickness were obtained from the formalin fixed, paraffin embedded tissue blocks with a microtome. […]

A further data set concerns MDA-MB-231/Luc-GFP cells. Kind of data set: Breast cancer lung metastasis mouse model (tail vein MDA-MB-231/Luc-GFP). It counts as in vivo, Female athymic mice (nu/nu). As for the experimental part:
as §1, with “MDA-MB-231/Luc-GFP cells were implanted by tail vein injection (2×10^6 cells in 100 μL PBS).” left out

The test system of a further data set is human prostate PC3 cells. The following applies: in the presence of doxorubicin; cited from earlier work.

Each structure is given as a SMILES string.

One may read the IC50 as the midpoint of a concentration-inhibition curve.

Consider `COc1cccc2c1C(=O)c1c(O)c3c(c(O)c1C2=O)C[C@@](O)(C(=O)CO)C[C@@H]3O[C@H]1C[C@H](N)[C@H](O)[C@H](C)O1` [DOX, doxorubicin], for which the “release of free DOX” value in data set [1] was “about 75%”. The DOX cellular uptake result with MDA-MB-231 cells [2] (MDA-MB-231 pretreated with a/b FGF, confocal/FACS, 1-6 hours) is listed as “entered cells much more slowly than GCS-SM/DOX NPs”. For the same compound, the “subcellular localization of DOX” value in the data set on MDA-MB-231 cells [2] (confocal, after 3 hours of treatment) is listed as “still stayed in the cytosol”. The “cytotoxicity of DOX on further increase of SM” value in the data set with MDA-MB-231 cells [3] (SM 20 μM or 100 μM, presence of a/b FGF) is reported as “did not additionally boost its cytotoxicity”. The “cytotoxicity of DOX on addition of SM” value in the data set with MDA-MB-231 cells [3] (addition of 10 μM SM, presence of a/b FGF) is on record as “greatly enhanced”.
As for `Cc1ccc(C(=O)Nc2ccc(S(=O)(=O)O)c3cc(S(=O)(=O)O)cc(S(=O)(=O)O)c23)cc1NC(=O)c1cccc(NC(=O)Nc2cccc(C(=O)Nc3cc(C(=O)Nc4ccc(S(=O)(=O)O)c5cc(S(=O)(=O)O)cc(S(=O)(=O)O)c45)ccc3C)c2)c1` [SM, 8,8′-[carbonylbis[imino-3,1-phenylenecarbonylimino (4-methyl-3,1-phenylene)carbonylimino]]bisnaphthalene-1,3,5-trisulphonic acid], the “inhibitory effect on cell migration” value with MDA-MB-231 cells [4] is reported as “only slightly inhibited cell migration”. Besides, the “tube formation ability of HUVECs” value in [5] is on record as “significantly inhibited”. For the same compound, the “number of invaded MDA-MB-231 cells in each view area” value in the data set with MDA-MB-231 cells [6] came out at 718. Also, the “formation of new microvessels in tumor tissues” value in data set [7] is reported as “did not decrease the formation of new blood vessels”. Besides, in data set [8], the kidney histology result is “normal kidney histologic structure”; the “lung histology: tumor area” value was “mild reduction in the occupied area ratio between the tumorous tissue and normal tissue”. Further, in the data set with MDA-MB-231/Luc-GFP cells (Kaplan-Meier at 12 weeks), the “survival rates versus control” value is reported as “moderately increased survival rates”. The compound also yielded a median survival time in the data set on MDA-MB-231/Luc-GFP cells (Kaplan-Meier at 12 weeks, control 64.5 days) of 76.5 days. Moreover, the “proliferation of cancer cells and metastasis (whole-body luminescence)” value in the data set with MDA-MB-231/Luc-GFP cells (SM 3.5 mg/kg and/or DOX 0.5 mg/kg once per week, imaging over 6 weeks) was “slowed down compared to the control”. Also, the body weight change entry in the data set with MDA-MB-231/Luc-GFP cells (after 8 weeks of treatment) is recorded as “did not cause significant weight loss”. In the data set on MDA-MB-231/Luc-GFP cells (compared to control group), the “effect on lung weight” value is “Neither the SM nor the GCS-SM NP groups showed significant effect on lung weight”. Besides, in the data set on human prostate PC3 cells, the “concentration reversing FGF-induced drug resistance” value is 1 to 17 µM. Further, the cytotoxicity entry in the data set on MDA-MB-231 cells [3] (200 μM SM, 24 hours, MDA-MB-231) is listed as “no cytotoxicity was observed”. Moreover, the half-maximal inhibitory concentration (IC50) in the data set on MDA-MB-231 cells [3] (Homo sapiens, 48 hours of treatment, MDA-MB-231) worked out at 200 µM. The “inhibition of cell proliferation (cytotoxicity)” value in the data set on MDA-MB-231 cells [3] (concentrations up to 200 μM, within 24 h) is on record as “neither SM nor GCS-SM NP inhibited cell proliferation”.

The record behind these values is patent US11000482B2, “Fabrication of a suramin-loaded nanoparticle and its application” (UNIVERSITY OF SOUTH CAROLINA, priority 2018, dated 2021).
